Assay results published in paper PMC4020785 (PLoS ONE, 2014).

Tests used:
HIV LTR in J-Lat clones = assay: LTR-driven GFP expression in J-Lat clones; assay type: cell-based, HIV-1
Description: J-Lat cells are Jurkat cells stably transfected by an HIV genome whose nef sequence was replaced by the GFP gene. Also, a frameshift mutation was introduced to the env gene to prevent virus spread. […] To test the ISDs, a million cells of each clone were treated with different concentrations of each compound (ING-A, ING-B, ING-C, prostratin and PMA) at 37°C. TNF-α (10 ng/mL) was used as a positive control. After 48 h, cells were collected, washed with saline solution (PBS) and GFP expression was evaluated in a FACScalibur cytometer (BD Biosciences). Data were analyzed with Cell Quest Pro software (BD Biosciences).

HIV-1 NL4.3-Luc = assay: Luciferase expression in CD4+ T cells pre-treated and infected with NL4.3-Luc; assay type: cell-based; conditions: cells pre-treated 24 h, infected with NL4.3-Luc MOI 0.1
Description: CD4+ T cells were isolated by negative selection from human PBMCs (2.5×10^8 cells) using magnetic beads (Miltenyi) and incubated with 5 µg/mL PHA-P and 100 U IL-2 for 5 days. Cells were then seeded in 6-well plates (10^6 cells per well) and treated with different concentrations of ING-B. After 24 h, cells were infected with HIV-1 NL-Luc (MOI of 0.1) by spinoculation. Infected cells were kept at 37°C for 24 h and then collected for luciferase activity evaluation as described above.

[1] = test system: HIV-1 clone NL4.3 (subtype B); assay: HIV-1 NL4.3 (subtype B) infection of MT-4 cells, Cell Titer Blue readout; assay type: cell-based
Description: (§1) Human PMBCs were incubated with 100 U recombinant IL-2 (Sigma-Aldrich) and 5 µg/mL phytohemagglutinin-P (PHA-P) (Difco) for 5 days at 37°C. MT-4 cells (1×10^6) or treated PBMCs (1.2×10^8) were infected with HIV-1 clone NL-4.3 or ZM247Fv-1 (MOI of 0.001) by spinoculation (1200 g at room temperature for 2 h). Uninfected cells were used as negative control and were also subjected to the spinoculation process. After spinoculation, supernatants were discarded and cells were resuspended in 10 mL of R10. Cells from each condition were then added to wells (96-well plate) containing serial dilutions of each ISD. For MT-4 cells, each dilution was done in sextuplicates and, for PBMCs, in triplicates. Cells were also incubated with different concentrations of ZDV as positive control. After 5 days in culture, Cell Titer Blue was added to each well and cells were incubated for additional 24 h. The median effective concentration for each drug is defined as EC50. In parallel with the infectivity assay, the same cell types were treated with different concentrations of drugs to determine their cytotoxicity, following the protocol described above. Drug concentration that results in a 50% decrease in viable cells is defined as the CC50 for each compound. EC50 was calculated according to Spearman-Karber and therapeutic index was defined by the ratio between CC50 and EC50 [55].
(§2) All statistical analyses were performed using program GraphPism version 6.0. Titrations for TCID50 infectivity were calculated by the Spearman-Karber method. Dose response curves to ISDs with HIV-1 subtype B and C were done using non-linear regression and were fit to the Hill equation.

[2] = Cytotoxicity (CC50) in MT-4 cells; assay type: cell-based; conditions: human, Subtype B (X4)
Description: (§3) Cytotoxicity of ISDs was evaluated in J-Lat (clones 9.2 and 10.6) and PHA-activated human PBMCs. Cells were added to wells in a 96-well plate in the presence of various concentrations of ISDs, PMA or prostratin in sextuplicates for 24 and 72 h. Cell viability was determined using the CellTiter-blue fluorescence Cell Viability Assay (Promega) following the manufacturer's instruction.
as §1

[3] = test system: HIV-1 clone ZM247Fv-1 (subtype C); assay: HIV-1 ZM247Fv-1 (subtype C) infection of human PBMCs, Cell Titer Blue readout; assay type: cell-based
Description: as §1, §2

human PBMCs [4] = assay: Cellular proliferation assay (CFSE) in human PBMCs; assay type: cell-based; conditions: CFSE-stained human PBMC, 1, 5 or 10 µM, 8 days
Description: Human PBMCs were stained with CFSE following manufacturer's instructions (Sigma-Aldrich). After staining, cells were washed twice in PBS and incubated with ING-B (1, 5 or 10 µM), 5 µg/mL PHA-P plus 10 U/mL IL-2 (as positive control), or DMSO 1% (as negative control). Cell proliferation was assessed for 8 days after stimulation, and relative proliferation index was calculated for all conditions.

[5] = test system: J-Lat (clones 9.2 and 10.6); assay: Cell viability of J-Lat clones 9.2 and 10.6 (CellTiter-blue); assay type: cell-based; conditions: J-Lat clones 9.2 and 10.6, 48 h
Description: Cytotoxicity of ISDs was evaluated in J-Lat (clones 9.2 and 10.6) and PHA-activated human PBMCs. […] Cell viability was determined using the CellTiter-blue fluorescence Cell Viability Assay (Promega) following the manufacturer's instruction.

[6] = parameters: method as in earlier work; conditions: dogs, oral dosing; ref personal communication from Aurigon Life Science – Tutzing, Germany; cited from earlier work
[7] = test system: CD4, CXCR4, CCR5 on CD4+ T lymphocytes; assay: Surface CD4, CXCR4, CCR5 expression in CD4+ T lymphocytes (cytometry); assay type: cell-based, human; conditions: cells from three donors, different concentrations, 24 h
Description: For analysis of cell surface marker expression, MT-4 cells and bead-selected CD4+ T cells (described above) were incubated with 1 µM of each compound (ING-A, ING-B, ING-C, prostratin, PMA, and bryostatin-1) at 37°C for 48 h. After incubation, cells were washed with PBS and incubated for 20 min at room temperature with antibodies against CD3-Brilliant Violet 510 (clone OKT3 – Biolegend), CD4-Qdot 655 (clone 53.5 - Life Technologies), CXCR4-PE (clone 1265 - BD Biosciences), CCR5-PerCP-Cy5.5 (clone 3A9 - BD Biosciences), CD69-Pacific Blue (clone FN50 – BD Biosciences), CD38-FITC (clone AT-1 – Stem Cell Technologies), CD25-APC (clone 2A3 – BD Biosciences), HLA-DR-Qdot 605 (clone TÜ36 – Life Technologies) and a marker for annexin V-FITC (Life Technologies). Cells (both MT-4 cells and CD4+ T cells) were initially incubated for 2 h with different PKC inhibitors (GÖ6983, GÖ6976 or RO-31-8220). Then, ING-B, prostratin or PMA at 1 µM or TNF-α at 10 ng/mL were added to each condition and incubation was carried out for 24 h at 37°C. Similar protocol was used for the analysis of PKC inhibitors in J-Lat clones 9.2 and 10.6. GFP expression, surface marker expression and activation marker were evaluated on a LSR Fortessa cytometer (BD Biosciences). Data analysis was performed using FlowJo software (Tree Star).

human PBMCs [8] = assay: Cytotoxicity in human PBMCs at 24 and 72 h; assay type: cell-based
Description: as §3

In the case of `CCCCCC(=O)O[C@H]1C(C)=C[C@]23C(=O)[C@@H](C=C(CO)[C@@H](O)[C@]12O)[C@H]1[C@@H](C[C@H]3C)C1(C)C` [ING-B, ingenol-3-hexanoate], the “GFP induction compared with other compounds” value (HIV LTR in J-Lat clones; J-Lat clone 10.6, 48 h) is reported as “slightly more active than ING-A, ING-C and prostratin”, the “levels of GFP expression, rank order” value (HIV LTR in J-Lat clones; J-Lat clones 9.2 and 10.6, 48 h, all concentrations tested) is reported as “PMA = ING-B > ING-A = ING-C > prostratin” and the “levels of HIV-driven luciferase” value (HIV-1 NL4.3-Luc) is reported as “dramatically reduced”. For the same compound, the EC50 ([1]; Human immunodeficiency virus 1, MT4) was 22 nM, the “TI (CC50/EC50)” value ([1]; MT-4 cells, Subtype B (X4)) was 1272 and the CC50 at 5 days [2] was 28000 nM. The “TI (CC50/EC50)” value ([3]; Human PBMC, Subtype C (R5)) was 851, the EC50 ([3]; Human immunodeficiency virus 1, PBMC) was 47 nM and the cell proliferation (human PBMCs [4]) was “no evidence that ING-B caused cell proliferation”. For the same compound, the “cell viability / toxicity” value [5] was “lower toxicity when compared to its counterparts”, the no-observed-adverse-effect level [6] was 4 mg/kg/day and the “downregulation of CD4, CCR5 and CXCR4, dose dependence” value [7] was “dose dependent”. The cytotoxicity (human PBMCs [8]) was “less cytotoxic after 72 h of treatment”.
